According to patent publication US11104619B2, “Mixture for treating fertilizers containing urea” (EuroChem Agro GmbH, priority 2015, dated 2021):
Read-outs that look alike come from different tables or passages of the source.

What was measured:
[1] = test system: nitrification; test: Soil incubation trial: recovery of applied urea N as ammonium; conditions: for percentage recovery in the form of ammonium, % of applied urea (13 mg N): 28 days after application, Filder loam pH 6.8, 20° C., 200 kg urea N/ha, label gives UI/NI fraction of recommended rate (0.6 g NBPT, 3.6 g DMPSA per kg urea)
Protocol: % of applied urea (13 mg N)
A determination was carried out 28 days after application of the urea, with the percentage recovery in the form of ammonium being reported.

[2] = test system: nitrification; test: Soil incubation trial: nitrate formed from applied urea N; conditions: Filder loam, 20° C., label gives UI/NI fraction of recommended rate
Protocol: % of the urea applied (13 mg N)

[3] = test system: nitrification; test: Soil incubation trial: cumulative laughing gas (N2O-N) emission; conditions: 77 mg N applied; for N2O—N cumulative, % of appl.: cumulative over 28 days
[4] = test system: urease; test: Screening trials: hydrolysis of urea in soil; conditions: first few days of application; with DMPSA present
[5] = test system: urease; conditions: for Ammonia emission, % of the urea applied (77 mg N): Filder loam, 20° C., label gives UI/NI fraction of recommended rate
Protocol: Screening trials were conducted to evaluate the effect of DMPSA and NBPT in the inhibition of urease and inhibition of nitrification, and to find suitable quantities for use. Serving for this purpose was a two-factorial trial design including an unfertilized control sample. For the urease inhibitor NBPT and for the nitrification inhibitor DMPSA, in each case 0%, 33%, 66% and 100% of the application rates recommended for the individual compounds when used alone were used (in this example, 0.6 g of NBPT per kg of urea and, respectively, 3.6 g of DMPSA per kg of urea), giving 16 trials (0%-0% to 100%-100%), in addition to the unfertilized control sample.
Urea fertilizer was delivered in an amount of 200 kg nitrogen per ha, corresponding to 0.51 mg of urea nitrogen per g of soil. The soil used was Filder loam with a pH of 6.8. The incubation trials were carried out at 20° C. For the investigation of trace gases, air supply was passed first through a gas sample, then through a 250 ml capacity glass bottle containing 150 g of soil, subsequently through a gas sample for the outgoing air and through an acid trap, in order, for example, to determine amounts of ammonia. For the measurement of nitrogen, about 20 g of soil were incubated; for the measurement of urea, about 5 g of soil.

SMILES: CCCCNP(N)(N)=S [NBPT, N-(n-butyl)thiophosphoric triamide]
- percentage recovery in the form of ammonium, % of applied urea (13 mg N) ([1]; listed as UI 1 NI 0): 28%
- percentage recovery in the form of ammonium, % of applied urea (13 mg N) ([1]; listed as UI ⅓ NI 0): 9%
- percentage recovery in the form of ammonium, % of applied urea (13 mg N) ([1]; listed as UI ⅔ NI 0): 21%
- supplementary influence on ammonium recovery ([1]; after 28 days): no supplementary influence
- Nitrate, % of the urea applied (13 mg N) ([2]; 5 days after application, listed as UI 1 NI 0): 11%
- Nitrate, % of the urea applied (13 mg N) ([2]; 5 days after application, listed as UI ⅓ NI 0): 10%
- Nitrate, % of the urea applied (13 mg N) ([2]; 5 days after application, listed as UI ⅔ NI 0): 11%
- Nitrate, % of the urea applied (13 mg N) ([2]; 28 days after application, listed as UI 1 NI 0): 52%
- Nitrate, % of the urea applied (13 mg N) ([2]; 28 days after application, listed as UI ⅓ NI 0): 58%
- Nitrate, % of the urea applied (13 mg N) ([2]; 28 days after application, listed as UI ⅔ NI 0): 64%
- N2O—N cumulative ([3]; 0 days after appl., 150 g soil): 0 μg N2O—N Bottle^1
- N2O—N cumulative ([3]; 0.5 days after appl.): 0 μg N2O—N Bottle^1
- N2O—N cumulative ([3]; 1 day after appl., listed as UI-1_NI-0): 2 μg N2O—N Bottle^1
- N2O—N cumulative ([3]; 1 day after appl., listed as UI-2_NI-0): 1 μg N2O—N Bottle^1
- N2O—N cumulative ([3]; 1 day after appl., listed as UI-3_NI-0): 2 μg N2O—N Bottle^1
- N2O—N cumulative ([3]; 2 days after appl., listed as UI-1_NI-0): 3 μg N2O—N Bottle^1
- N2O—N cumulative ([3]; 2 days after appl., listed as UI-2_NI-0): 2 μg N2O—N Bottle^1
- N2O—N cumulative ([3]; 2 days after appl., listed as UI-3_NI-0): 7 μg N2O—N Bottle^1
- N2O—N cumulative ([3]; 3 days after appl., listed as UI-1_NI-0): 4 μg N2O—N Bottle^1
- N2O—N cumulative ([3]; 3 days after appl., listed as UI-2_NI-0): 3 μg N2O—N Bottle^1
- N2O—N cumulative ([3]; 3 days after appl., listed as UI-3_NI-0): 10 μg N2O—N Bottle^1
- N2O—N cumulative ([3]; 4 days after appl., listed as UI-1_NI-0): 5 μg N2O—N Bottle^1
- N2O—N cumulative ([3]; 4 days after appl., listed as UI-2_NI-0): 3 μg N2O—N Bottle^1
- N2O—N cumulative ([3]; 4 days after appl., listed as UI-3_NI-0): 11 μg N2O—N Bottle^1
- N2O—N cumulative ([3]; 5 days after appl., listed as UI-1_NI-0): 7 μg N2O—N Bottle^1
- N2O—N cumulative ([3]; 5 days after appl., listed as UI-2_NI-0): 4 μg N2O—N Bottle^1
- N2O—N cumulative ([3]; 5 days after appl., listed as UI-3_NI-0): 12 μg N2O—N Bottle^1
- N2O—N cumulative ([3]; 6 days after appl., listed as UI-1_NI-0): 16 μg N2O—N Bottle^1
- N2O—N cumulative ([3]; 6 days after appl., listed as UI-2_NI-0): 8 μg N2O—N Bottle^1
- N2O—N cumulative ([3]; 6 days after appl., listed as UI-3_NI-0): 13 μg N2O—N Bottle^1
- N2O—N cumulative ([3]; 8 days after appl., listed as UI-1_NI-0): 32 μg N2O—N Bottle^1
- N2O—N cumulative ([3]; 8 days after appl., listed as UI-2_NI-0): 16 μg N2O—N Bottle^1
- N2O—N cumulative ([3]; 8 days after appl., listed as UI-3_NI-0): 20 μg N2O—N Bottle^1
- N2O—N cumulative ([3]; 10 days after appl., listed as UI-1_NI-0): 48 μg N2O—N Bottle^1
- N2O—N cumulative ([3]; 10 days after appl., listed as UI-2_NI-0): 36 μg N2O—N Bottle^1
- N2O—N cumulative ([3]; 10 days after appl., listed as UI-3_NI-0): 31 μg N2O—N Bottle^1
- N2O—N cumulative ([3]; 12 days after appl., listed as UI-1_NI-0): 75 μg N2O—N Bottle^1
- N2O—N cumulative ([3]; 12 days after appl., listed as UI-2_NI-0): 67 μg N2O—N Bottle^1
- N2O—N cumulative ([3]; 12 days after appl., listed as UI-3_NI-0): 52 μg N2O—N Bottle^1
- N2O—N cumulative ([3]; 14 days after appl., listed as UI-1_NI-0): 122 μg N2O—N Bottle^1
- N2O—N cumulative ([3]; 14 days after appl., listed as UI-2_NI-0): 125 μg N2O—N Bottle^1
- N2O—N cumulative ([3]; 14 days after appl., listed as UI-3_NI-0): 90 μg N2O—N Bottle^1
- N2O—N cumulative ([3]; 17 days after appl., listed as UI-1_NI-0): 144 μg N2O—N Bottle^1
- N2O—N cumulative ([3]; 17 days after appl., listed as UI-2_NI-0): 145 μg N2O—N Bottle^1
- N2O—N cumulative ([3]; 17 days after appl., listed as UI-3_NI-0): 99 μg N2O—N Bottle^1
- N2O—N cumulative ([3]; 18 days after appl., listed as UI-1_NI-0): 179 μg N2O—N Bottle^1
- N2O—N cumulative ([3]; 18 days after appl., listed as UI-2_NI-0): 190 μg N2O—N Bottle^1
- N2O—N cumulative ([3]; 18 days after appl., listed as UI-3_NI-0): 125 μg N2O—N Bottle^1
- N2O—N cumulative ([3]; 20 days after appl., listed as UI-1_NI-0): 203 μg N2O—N Bottle^1
- N2O—N cumulative ([3]; 20 days after appl., listed as UI-2_NI-0): 215 μg N2O—N Bottle^1
- N2O—N cumulative ([3]; 20 days after appl., listed as UI-3_NI-0): 141 μg N2O—N Bottle^1
- N2O—N cumulative ([3]; 22 days after appl., listed as UI-1_NI-0): 238 μg N2O—N Bottle^1
- N2O—N cumulative ([3]; 22 days after appl., listed as UI-2_NI-0): 249 μg N2O—N Bottle^1
- N2O—N cumulative ([3]; 22 days after appl., listed as UI-3_NI-0): 156 μg N2O—N Bottle^1
- N2O—N cumulative ([3]; 24 days after appl., listed as UI-1_NI-0): 343 μg N2O—N Bottle^1
- N2O—N cumulative ([3]; 24 days after appl., listed as UI-2_NI-0): 312 μg N2O—N Bottle^1
- N2O—N cumulative ([3]; 24 days after appl., listed as UI-3_NI-0): 174 μg N2O—N Bottle^1
- N2O—N cumulative ([3]; 28 days after appl., listed as UI-1_NI-0): 497 μg N2O—N Bottle^1
- N2O—N cumulative ([3]; 28 days after appl., listed as UI-2_NI-0): 397 μg N2O—N Bottle^1
- N2O—N cumulative ([3]; 28 days after appl., listed as UI-3_NI-0): 194 μg N2O—N Bottle^1
- N2O—N cumulative, % of appl. ([3]; listed as UI-1_NI-0): 0.65 % of appl.
- N2O—N cumulative, % of appl. ([3]; listed as UI-2_NI-0): 0.52 % of appl.
- N2O—N cumulative, % of appl. ([3]; listed as UI-3_NI-0): 0.25 % of appl.
- inhibition of the hydrolysis of urea [4]: sufficiently inhibits the hydrolysis of urea
- reduction in ammonia emissions ([5]; 66% NBPT, especially 9 days after application): notable and almost complete reduction in ammonia emissions
- Ammonia emission, % of the urea applied (77 mg N) ([5]; 4 days after application, listed as UI 1 NI 0): 0.0%
- Ammonia emission, % of the urea applied (77 mg N) ([5]; 4 days after application, listed as UI ⅓ NI 0): 0.3%
- Ammonia emission, % of the urea applied (77 mg N) ([5]; 4 days after application, listed as UI ⅔ NI 0): 0.1%
- Ammonia emission, % of the urea applied (77 mg N) ([5]; 9 days after application, listed as UI 1 NI 0): 0.0%
- Ammonia emission, % of the urea applied (77 mg N) ([5]; 9 days after application, listed as UI ⅓ NI 0): 1.1%
- Ammonia emission, % of the urea applied (77 mg N) ([5]; 9 days after application, listed as UI ⅔ NI 0): 0.2%
- effect on the increase in ammonia emission caused by the nitrification inhibitor ([5]; addition of NBPT): prevent the increase in ammonia emission
